Consider eight compounds from ChEMBL document CHEMBL5346923, “Novel pyridinium cationic pleuromutilin analogues overcoming bacterial multidrug resistance” (Eur J Med Chem, 2023).

Bounds are passed on as bounds.

Type in all cases: functional
In one test the test system is Proteus. In words: Antibacterial activity against Proteus CMCC (B) 49027 assessed as inhibition of bacterial growth measured after 24 hrs by MH broth based assay.
A further test has as its system Bacillus subtilis. Put plainly: Antibacterial activity against Bacillus subtilis ATCC 6633 assessed as inhibition of bacterial growth measured after 24 hrs by MH broth based assay.
In test [1] the test system is Staphylococcus aureus. In words: Antibacterial activity against methicillin-resistant Staphylococcus aureus ATCC 43300 assessed as inhibition of bacterial growth measured after 24 hrs by MH broth based assay.
The test system of another test is Klebsiella pneumoniae. Put plainly: Antibacterial activity against Klebsiella pneumonia CMCC (B) 46117 assessed as inhibition of bacterial growth measured after 24 hrs by MH broth based assay.
The test system of a further test is Enterococcus. In words: Antibacterial activity against vancomycin-resistant Enterococcus ATCC 700221 assessed as inhibition of bacterial growth measured after 24 hrs by MH broth based assay.
The subject of test [2] is Escherichia coli. In words: Antibacterial activity against Escherichia coli MG1655 assessed as inhibition of bacterial growth measured after 24 hrs by MH broth based assay.
The next test concerns Streptococcus pneumoniae. Put plainly: Antibacterial activity against Streptococcus pneumoniae ATCC 49619 assessed as inhibition of bacterial growth measured after 24 hrs by MH broth based assay.
In test [3] the test system is Escherichia coli. Put plainly: Antibacterial activity against Escherichia coli ATCC 25922 assessed as inhibition of bacterial growth measured after 24 hrs by MH broth based assay.
Test [4] relates to Staphylococcus epidermidis. Put plainly: Antibacterial activity against methicillin-resistant Staphylococcus epidermidis ATCC 51625 assessed as inhibition of bacterial growth measured after 24 hrs by MH broth based assay.
For test [5], the system named is Escherichia coli. Put plainly: Antibacterial activity against Escherichia coli MG1655 harbouring acrB gene assessed as inhibition of bacterial growth measured after 24 hrs by MH broth based assay.
The test system of test [6] is Staphylococcus aureus. Put plainly: Antibacterial activity against Staphylococcus aureus ATCC 29213 assessed as inhibition of bacterial growth measured after 24 hrs by MH broth based assay.

As a reminder, the MIC is the smallest concentration in the dilution series that meets the test's criterion for growth inhibition. As for `C=C[C@]1(C)C[C@@H](OC(=O)CSc2cc[n+](Cc3ccc(C(=O)OC(C)(C)C)cc3)cc2)[C@]2(C)[C@H](C)CC[C@]3(CCC(=O)[C@H]32)[C@@H](C)[C@@H]1O.[I-]`, the MIC with Proteus was greater than 64 µg/mL; with Bacillus subtilis, 64 µg/mL; in the test with Staphylococcus aureus [1] it was 1 µg/mL; with Klebsiella pneumoniae, 64 µg/mL; in the test with Enterococcus, 64 µg/mL; with Escherichia coli [2] it was 64 µg/mL. The MIC in the test with Streptococcus pneumoniae was 0.25 µg/mL; in the test with Escherichia coli [3] it was 64 µg/mL; in [4] it was 0.5 µg/mL; in the test with Escherichia coli [5], 4 µg/mL; with Staphylococcus aureus [6], 1 µg/mL.
Regarding `C=C[C@]1(C)C[C@@H](OC(=O)CSc2cc[n+](CC(=O)N3CCOCC3)cc2)[C@]2(C)[C@H](C)CC[C@]3(CCC(=O)[C@H]32)[C@@H](C)[C@@H]1O.[I-]`, the MIC is greater than 64 µg/mL with Proteus; greater than 64 µg/mL in the test with Bacillus subtilis; 16 µg/mL with Staphylococcus aureus [1]; greater than 64 µg/mL in the test with Klebsiella pneumoniae; 64 µg/mL with Enterococcus; 64 µg/mL in the test with Escherichia coli [2]. The minimal inhibitory concentration (MIC) in the test on Streptococcus pneumoniae is 4 µg/mL; in the test on Escherichia coli [3] it was greater than 64 µg/mL; in test [4], 8 µg/mL; in the test on Escherichia coli [5], 8 µg/mL; in the test on Staphylococcus aureus [6], 16 µg/mL.
As for `C=C[C@]1(C)C[C@@H](OC(=O)CSc2cc[n+](CCO)cc2)[C@]2(C)[C@H](C)CC[C@]3(CCC(=O)[C@H]32)[C@@H](C)[C@@H]1O.[I-]`, the MIC turned out to be 64 µg/mL in the test on Proteus; 64 µg/mL in the test with Bacillus subtilis; 1 µg/mL in the test with Staphylococcus aureus [1]; 32 µg/mL in the test with Klebsiella pneumoniae; 32 µg/mL in the test with Enterococcus; 64 µg/mL with Escherichia coli [2]. The MIC with Streptococcus pneumoniae was 0.5 µg/mL; in the test on Escherichia coli [3], 64 µg/mL; in test [4], 1 µg/mL; in the test on Escherichia coli [5] it was 0.5 µg/mL; in the test with Staphylococcus aureus [6], 1 µg/mL.
For the compound `C=C[C@]1(C)C[C@@H](OC(=O)CSc2cc[n+](COC)cc2)[C@]2(C)[C@H](C)CC[C@]3(CCC(=O)[C@H]32)[C@@H](C)[C@@H]1O.[I-]`, the minimum inhibitory concentration (MIC) was greater than 64 µg/mL with Proteus; 64 µg/mL with Bacillus subtilis; 0.25 µg/mL in the test on Staphylococcus aureus [1]; 64 µg/mL with Klebsiella pneumoniae; 32 µg/mL in the test with Enterococcus; 64 µg/mL in the test on Escherichia coli [2]. The MIC with Streptococcus pneumoniae came out at 0.25 µg/mL; in the test on Escherichia coli [3] it was 64 µg/mL; in [4], 0.5 µg/mL; in the test on Escherichia coli [5], 1 µg/mL; in the test on Staphylococcus aureus [6], 0.25 µg/mL.
As for `C=C[C@]1(C)C[C@@H](OC(=O)CSc2cc[n+](CCCCCCCCCC(=O)O)cc2)[C@]2(C)[C@H](C)CC[C@]3(CCC(=O)[C@H]32)[C@@H](C)[C@@H]1O.[I-]`, the MIC was greater than 64 µg/mL in the test with Proteus; greater than 64 µg/mL in the test on Bacillus subtilis; 4 µg/mL with Staphylococcus aureus [1]; greater than 64 µg/mL with Klebsiella pneumoniae; 64 µg/mL in the test with Enterococcus; greater than 64 µg/mL in the test on Escherichia coli [2]. Further, the MIC was 1 µg/mL with Streptococcus pneumoniae; greater than 64 µg/mL in the test on Escherichia coli [3]; 2 µg/mL in test [4]; 32 µg/mL in the test with Escherichia coli [5]; 4 µg/mL in the test with Staphylococcus aureus [6].
Regarding `C=C[C@]1(C)C[C@@H](OC(=O)CSc2cc[n+](CCCC)cc2)[C@]2(C)[C@H](C)CC[C@]3(CCC(=O)[C@H]32)[C@@H](C)[C@@H]1O.[I-]`, the minimal inhibitory concentration (MIC) in the test with Proteus is greater than 64 µg/mL; in the test with Bacillus subtilis, 64 µg/mL; with Staphylococcus aureus [1], 0.25 µg/mL; in the test with Klebsiella pneumoniae, 16 µg/mL; with Enterococcus, 16 µg/mL; in the test on Escherichia coli [2] it was 64 µg/mL. For the same compound, the MIC in the test on Streptococcus pneumoniae is less than 0.031 µg/mL; with Escherichia coli [3], 64 µg/mL; in test [4], 0.063 µg/mL; with Escherichia coli [5] it was 0.5 µg/mL; in the test with Staphylococcus aureus [6], 0.25 µg/mL.
`C=C[C@]1(C)C[C@@H](OC(=O)CSc2cc[n+](CCCCCC(=O)O)cc2)[C@]2(C)[C@H](C)CC[C@]3(CCC(=O)[C@H]32)[C@@H](C)[C@@H]1O.[I-]`: the minimal inhibitory concentration (MIC) in the test with Proteus is greater than 64 µg/mL; in the test on Bacillus subtilis it was greater than 64 µg/mL; with Staphylococcus aureus [1], 16 µg/mL; in the test on Klebsiella pneumoniae it was greater than 64 µg/mL; with Enterococcus, 64 µg/mL; in the test on Escherichia coli [2] it was 64 µg/mL. Moreover, the MIC in the test with Streptococcus pneumoniae is 4 µg/mL; in the test with Escherichia coli [3], greater than 64 µg/mL; in [4], 8 µg/mL; in the test with Escherichia coli [5] it was 32 µg/mL; in the test on Staphylococcus aureus [6] it was 8 µg/mL.
As to `C=C[C@]1(C)C[C@@H](OC(=O)CSc2cc[n+](CC#CC)cc2)[C@]2(C)[C@H](C)CC[C@]3(CCC(=O)[C@H]32)[C@@H](C)[C@@H]1O.[I-]`, the minimal inhibitory concentration (MIC) is greater than 64 µg/mL in the test with Proteus; greater than 64 µg/mL in the test on Bacillus subtilis; 0.25 µg/mL in the test on Staphylococcus aureus [1]; 64 µg/mL in the test with Klebsiella pneumoniae; 32 µg/mL with Enterococcus; 64 µg/mL in the test with Escherichia coli [2]. Besides, the MIC is less than 0.031 µg/mL in the test on Streptococcus pneumoniae; 64 µg/mL in the test with Escherichia coli [3]; 0.063 µg/mL in [4]; 1 µg/mL with Escherichia coli [5]; 0.125 µg/mL in the test on Staphylococcus aureus [6].
